# Like-named read-outs stand apart in the source and are kept apart here.
# Columns and labels:
# [1] = test system: SKOV3; experiment: MTT cytotoxicity assay, SKOV3
# Description: Cell lines and cytotoxicity assays: All cell lines were obtained from the American Type Culture Collection (ATCC) and cultured in the specified medium supplemented with 10% fetal bovine serum, 100 IU/mL penicillin, and 100 μg/mL streptomycin at 37° C. in a humidified 5% CO2/95% air incubator. […] To assess drug cytotoxicity, cells were seeded at 2,500 cells/well (10,000 cells/well for MM lines) in 100 μL medium in 96-well plate and after 24 treated with compounds for 72 h, incubated according to the manufacturer's protocol with the Thiazolyl Blue Tetrazolium Bromide (Sigma, M2128) and A570 measured using a Benchmark Plus microplate spectrophotometer (BIO-RAD). IC50 data was analyzed by Graphpad Prism software.
# [2] = test system: HeLa; experiment: MTT cytotoxicity assay, HeLa; details: read-out: cytotoxicity IC50 HeLa, Tables 3A/4B/4C
# [3] = test system: VU93
# [4] = test system: ID8-vegf; experiment: MTT cytotoxicity assay, ID8-vegf; details: read-out: cytotoxicity IC50 ID8-vegf, Tables 3A/4B/4C
# [5] = test system: OV2008; experiment: MTT cytotoxicity assay, OV2008; details: read-out: cytotoxicity IC50 OV2008
# Description: (§3) Cell lines and cytotoxicity assays: All cell lines were obtained from the American Type Culture Collection (ATCC) and cultured in the specified medium supplemented with 10% fetal bovine serum, 100 IU/mL penicillin, and 100 μg/mL streptomycin at 37° C. in a humidified 5% CO2/95% air incubator. […] To assess drug cytotoxicity, cells were seeded at 2,500 cells/well (10,000 cells/well for MM lines) in 100 μL medium in 96-well plate and after 24 treated with compounds for 72 h, incubated according to the manufacturer's protocol with the Thiazolyl Blue Tetrazolium Bromide (Sigma, M2128) and A570 measured using a Benchmark Plus microplate spectrophotometer (BIO-RAD). IC50 data was analyzed by Graphpad Prism software. In the chirality studies the cells were treated with compounds for 48 h, and the cells were incubated and measured via the preceeding protocols.
# [6] = test system: HeLa; details: human
# [7] = test system: FaDu; experiment: cells; details: Homo sapiens, read-out: cytotoxicity IC50 FaDu
# [8] = test system: TOV21G; experiment: MTT cytotoxicity assay, TOV21G; details: read-out: cytotoxicity IC50 TOV21G; Tables 3A/4B/4C; MTT assay
# [9] = test system: SSC90; details: human
# [10] = test system: ES2; experiment: MTT cytotoxicity assay, ES2; details: read-out: cytotoxicity IC50 ES2; Tables 3A/4B/4C; MTT assay
# [11] = test system: OVCAR3; experiment: MTT cytotoxicity assay, OVCAR3; details: read-out: cytotoxicity IC50 OVCAR3; Tables 3A/4B/4C; MTT assay
# [12] = test system: HCC1395; experiment: MTT cytotoxicity assay, HCC1395; details: Homo sapiens, HCC1395, read-out: cytotoxicity IC50 HCC1395
# [13] = test system: MCF7; experiment: MTT cytotoxicity assay, MCF7; details: read-out: cytotoxicity IC50 MCF7, Tables 3A/4B/4C
# [14] = test system: DLD1; experiment: MTT cytotoxicity assay, DLD1; details: Homo sapiens, DLD-1, read-out: cytotoxicity IC50 DLD1
# Description: as §3
# [15] = test system: DLD-BRCA2-Ve; experiment: MTT cytotoxicity assay, DLD-BRCA2-Ve; details: read-out: cytotoxicity IC50 DLD-BRCA2-Ve
# Description: as §3
# [16] = test system: BR5-Luc; experiment: MTT cytotoxicity assay, BR5-Luc; details: read-out: cytotoxicity IC50 BR5-Luc, Tables 3A/4B/4C, BRCA2 − VE
# [17] = test system: BR5-FvB1; experiment: MTT cytotoxicity assay, BR5-FvB1; details: Mus musculus, read-out: cytotoxicity IC50 BR5-FvB1
# Description: as §3
# [18] = test system: DLD-Seckle; experiment: MTT cytotoxicity assay, DLD-Seckle; details: read-out: cytotoxicity IC50 DLD-Seckle
# Description: as §3
# [19] = MTT cytotoxicity assay, RPE1; details: human, RPE1 cells
# Description: as §3
# [20] = test system: RPE1-ATMKO; experiment: MTT cytotoxicity assay, RPE1-ATMKO; details: read-out: cytotoxicity IC50 RPE1-ATMKO
# Description: as §3
# [21] = test system: VU93; experiment: MTT cytotoxicity assay, VU93; details: read-out: cytotoxicity IC50 VU93, Tables 3A/4B/4C
# [22] = test system: C2KmFvB1; experiment: MTT cytotoxicity assay, C2KmFvB1; details: read-out: cytotoxicity IC50 C2KmFvB1, Tables 3A/4B/4C, BRCA2 + Ve
# [23] = test system: SKOV3 cells; experiment: XTT cytotoxicity assay, SKOV3; assay type: cell-based, human
# Description: (§1) The impact of substituents of the aromatic ring on the potency of molecules was also examined. The presence of either an electron withdrawing group (EWG) or an electron donating group (EDG) influences the reactivity of a Michael acceptor towards the target protein but can also impact specificity/selectivity.
# [24] = molecular target: RPN13 (Homo sapiens, UniProt Q16186); experiment: Competition with RA190B labeling of 42 kDa cellular target in cell lysate; assay type: binding; design: endogenous in cells; running text says HeLa) and OV2008 cell lysates; details: cell lysate pre-incubated with compounds (20 μM), then RA190B; HRP-streptavidin blot
# Description: (§2) FIG. 1B illustrates precleared ES2 cell lysate incubated with compounds (20 μM) or vehicle (DMSO, 1:100) for 45 min and then with RA190B (5 μM) for 45 min at 4° C. by Western blot analysis. Samples were subjected to SDS-PAGE, transfer to PVDF membrane, and after probing with HRP-streptavidin, binding was detected using chemiluminescence.
# as §2, with “2B” for “1B”, “OV2008” for “ES2”, “(10” for “(5”, “binding of” for “after probing with”, “HRP-streptavidin,” for “HRP-streptavidin, binding was”
# Biotinylated RA190 (RA190B, FIG. 1A) is utilized as a probe to detect covalent binding to its cellular target(s) in detergent lysates of cancer cell lines (10). […] Here, the ability of compounds (FIG. 1A) to compete with RA190B binding to its 42 kDa cellular target (FIG. 1B) were examined. Compounds, including bortezomib as a negative control, were incubated with HeLa cell lysate and then RA190B added.
# Biotin labeling Assay: Clarified cell lysate in MPER buffer was pretreated with streptavidin magna beads for 45 min at 4° C. to deplete non-specific biotinylated proteins in the cell lysate. The beads were separated and 40 μL of the pre-cleared cell lysate was incubated with compounds (20 μM) for 45 min at 4° C., and then treated with RA183B, RA190B, or RA413SB (10 μM) for 45 min at 4° C. Next, the samples were mixed with Laemmli sample buffer (BioRad) and boiled for 5 min. […] (24 V). The membrane was blocked with 5% BSA in PBST for 1 hr at RT and washed for 20 minutes (3× with PBST). Then the membrane was probed with HRP-streptavidin (1:10,000 in PBST) for 1 hr at RT, washed for 30 min (3× with PBST), and developed using HyGLO chemiluminescent detection reagent (Denville) for biotin detection.
# [25] = test system: high molecular weight polyubiquitinated proteins; experiment: Western blot of polyubiquitinated proteins, ES2 cells; assay type: cell-based, human; details: 1 μM, 4 hr
# Description: FIG. 1C illustrates ES2 cells treated with compounds (1 μM, 4 hr), lysed and the samples probed with ubiquitin or actin-specific antibody by Western blot analysis.
# Antibodies, reagents, and Western Blot Analyses: Cell lysate (10-20 μg total protein) prepared in MPER (Pierce) from each sample was subjected to SDS-PAGE, transferred to PVDF membranes and analyzed by Western blot using antibodies specific Bax (#2772, Cell Signaling), ubiquitin (P4D1, sc-8017, Santa Cruz), PARP (#9542, BD Pharmingen), actin (#66009, Protein Tech Group), Tubulin(#66031, Protein Tech Group), ADRM1/Rpn13 (D9Z1U, #12019, Cell Signaling), Lys48-linkled ubiquitin (Apu 2, 05-1307, (Millipore), Annexin V (#559763, BD pharmingen), caspase-3 (51-68655X, BD Pharmingen) at the dilutions recommended by the manufacturers, and for secondary antibodies either peroxidase-linked anti-mouse IgG or anti-rabbit IgG (GE Healthcare UK Ltd) were utilized, HRP conjugated streptavidin (N100, Thermo Fisher) at the recommended dilution (1:5000). MitoTracker Red CMXRos reagent was purchased from ThermoFisher #M7512. The blots were developed using HyGLO chemiluminescent detection reagent (Denville).
# [26] = test system: HeLa cells; experiment: XTT cytotoxicity assay, HeLa; assay type: cell-based, human
# Description: as §1
# [27] = Homo sapiens, SK-OV-3, read-out: cytotoxicity IC50 SKOV3
# [28] = Table 1, XTT assay, read-out: IC50 SKOV3
# [29] = Table 1, XTT assay, read-out: IC50 HeLa
# RPN13, sequence (Q16186 whole entry): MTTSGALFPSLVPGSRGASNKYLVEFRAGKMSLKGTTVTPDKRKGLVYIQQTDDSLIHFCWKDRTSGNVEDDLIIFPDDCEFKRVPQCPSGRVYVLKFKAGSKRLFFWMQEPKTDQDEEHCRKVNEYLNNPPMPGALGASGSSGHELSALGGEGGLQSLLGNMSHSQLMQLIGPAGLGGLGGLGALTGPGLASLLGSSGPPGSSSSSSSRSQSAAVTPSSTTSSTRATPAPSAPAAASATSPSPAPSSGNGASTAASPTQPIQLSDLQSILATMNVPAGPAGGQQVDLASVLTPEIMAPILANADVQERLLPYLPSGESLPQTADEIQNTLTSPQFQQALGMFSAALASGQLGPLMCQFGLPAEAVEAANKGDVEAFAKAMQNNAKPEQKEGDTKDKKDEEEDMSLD
smiles,measurement,setting,value
CC1NCC(=Cc2ccc([N+](=O)[O-])cc2)C(=O)C1=Cc1ccc([N+](=O)[O-])cc1 (racemic) [RA411],IC50,"[1]; read-out: cytotoxicity IC50 SKOV3, Tables 3A/4B/4C, MTT assay",257 nM
same,IC50,[2],16 nM
CC1/C(=C\c2ccc([N+](=O)[O-])cc2)C(=O)/C(=C/c2ccc([N+](=O)[O-])cc2)CN1C(=O)[C@@H](N)Cc1ccccc1 (mixture of isomers) [RA413],IC50,[3],625 nM
same,IC50,[4],192 nM
same,IC50,[5],150 nM
same,IC50,[6],96 nM
same,IC50,[1]; [27],86 nM
same,IC50,[7],300 nM
same,IC50,[8],42 nM
same,IC50,[9],312 nM
CC1/C(=C\c2ccc(F)cc2)C(=O)/C(=C/c2ccc(F)cc2)CN1C(=O)[C@@H](N)Cc1ccccc1 (mixture of isomers) [RA462],IC50,[10],96 nM
same,IC50,[4],123 nM
same,IC50,[11],105 nM
same,IC50,[1]; [27],112 nM
same,IC50,[12],250 nM
same,IC50,[13],750 nM
CC1/C(=C\c2ccccc2F)C(=O)/C(=C/c2ccccc2F)CN1C(=O)[C@@H](N)Cc1ccccc1 (mixture of isomers) [RA467],IC50,[10],112 nM
same,IC50,[4],167 nM
same,IC50,[14],474 nM
same,IC50,[11],120 nM
same,IC50,[1]; [27],126 nM
same,IC50,[12],250 nM
same,IC50,[13],750 nM
same,IC50,[15],502 nM
"COc1cccc2c1C(=O)c1c(O)c3c(c(O)c1C2=O)C[C@@](O)(C(=O)CO)C[C@@H]3O[C@H]1C[C@H](N)[C@H](O)[C@H](C)O1 [DOX, Doxorubicin]",IC50,[16],237 nM
same,IC50,[17],< 20 nM
"O=C(c1cc(Cc2n[nH]c(=O)c3ccccc23)ccc1F)N1CCN(C(=O)C2CC2)CC1 [OLA, olaparib, reference compound]",IC50,[18],1.7 nM
same,IC50,[14],23000 nM
same,IC50,[16],500 nM
same,IC50,[17],30 nM
same,IC50,[19],23200 nM
same,IC50,[20],2.6 nM
same,IC50,[21],30 nM
same,IC50,[12],750 nM
same,IC50,[22],7960 nM
same,IC50,[15],2.5 nM
Cl.NC(Cc1ccccc1)C(=O)N1CC(=CC=Cc2ccccc2)C(=O)C(=CC=Cc2ccccc2)C1 (centres unmarked) [RA181C],IC50,[23]; [28],> 2500 nM
same,competition with RA190B binding to 42 kDa cellular target,[24],failed to compete binding by RA190B
same,accumulation of high molecular weight polyubiquitinated proteins,[25],only minimal accumulation of polyubiquitinated proteins
same,IC50,[26]; [29],> 2500 nM
Cl.NC(Cc1ccccc1)C(=O)N1CC(=Cc2ccccc2)C(=O)C(=Cc2ccccc2)C1 (centres unmarked) [RA181],IC50,[23]; [28],89 nM
same,competition with RA190B binding to 42 kDa cellular target,[24],competed labeling by RA190B to a greater extent
same,accumulation of high molecular weight polyubiquitinated proteins,[25],rapid accumulation of high molecular weight polyubiquitinated proteins
same,IC50,[26]; [29],63 nM
CC1(C)CN(C(=O)[C@@H](N)Cc2ccccc2)C/C(=C\c2ccc(Cl)c(Cl)c2)C1=O [RA190H],competition with RA190B binding to 42 kDa cellular target,[24],competed labeling by RA190B to a greater extent
same,accumulation of high molecular weight polyubiquitinated proteins,[25],only weakly caused an accumulation of high molecular weight polyubiquitinated proteins
same,IC50,"[26]; Homo sapiens, HeLa, Table 1, XTT assay, read-out: IC50 HeLa",562 nM
same,fold decreased potency compared to RA190,"[26]; cytotoxicity, Table 1 cell lines (HeLa, SKOV3)",6 fold
Cl.NC(Cc1ccccc1)C(=O)N1C2CCC1C(=Cc1ccc(Cl)c(Cl)c1)C(=O)C2=Cc1ccc(Cl)c(Cl)c1 (centres unmarked) [RA338],IC50,"[23]; Table 2, read-out: IC50 SKOV3 (bridge compounds)",81 nM
same,competition with RA190B binding to 42 kDa cellular target,[24],competed labeling by RA190B to a greater extent
same,accumulation of high molecular weight polyubiquitinated proteins,[25],rapid accumulation of high molecular weight polyubiquitinated proteins
same,IC50,"[26]; Table 2, read-out: IC50 HeLa (bridge compounds)",66 nM
"CC[C@]1(O)C[C@H]2CN(CCc3c([nH]c4ccccc34)[C@@](C(=O)OC)(c3cc4c(cc3OC)N(C=O)[C@H]3[C@@](O)(C(=O)OC)[C@H](OC(C)=O)[C@]5(CC)C=CCN6CC[C@]43[C@@H]65)C2)C1 [Vin, Vincristine]",IC50,[22],13.4 nM

# Source: patent US12673918B2, “Small molecule RPN13 inhibitors with antitumor properties” (The Johns Hopkins University, priority 2019, dated 2026)
